Measurements published in ChEMBL document CHEMBL1201862, “PubChem BioAssay data set” (2004).
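Step 1: Grow cells in 96-well plates. Step 2: Expose to compound for 48 hours at 5 concentrations. Step 3: Interpolate endpoints linearly; if unreached, use highest concentration. GI50 is the concentration that inhibits growth by half.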 Activity calls are given as the source filed them. No stated cut-off is given here; in the data, active = GI50 up to about 1.1 µM and inactive = higher.

Key:
Test in all cases: inhibition of tumour cell growth, NCI panel, 48 h
[1] = test system: BT-549
[2] = test system: COLO 205
[3] = test system: HCT-116
[4] = test system: HCT-15
[5] = test system: HL-60
[6] = test system: Hs-578T
[7] = test system: IGROV-1
[8] = test system: K562
[9] = test system: LOX IMVI
[10] = test system: MDA-MB-231
[11] = test system: MDA-N
[12] = test system: Malme-3M
[13] = test system: OVCAR-8
[14] = test system: RPMI-8226
[15] = test system: RXF 393
[16] = test system: SK-OV-3
[17] = test system: SN12C
[18] = test system: SNB-75
[19] = test system: SW-620
[20] = test system: UO-31

O=C1/C(=N/CCc2cc(Br)c(O)c(Br)c2)C=C(O)c2cccnc21
GI50 [1]: 1.37 µM (inactive) | GI50 [2]: 1.75 µM (inactive) | GI50 [3]: 2.46 µM (inactive) | GI50 [4]: 2.36 µM | GI50 [5]: 4.88 µM (inactive) | GI50 [6]: 1.49 µM (inactive) | GI50 [7]: 2.07 µM (inactive) | GI50 [8]: 1.56 µM (inactive) | GI50 [9]: 0.634 µM (active) | GI50 [10]: 7.35 µM (inactive) | GI50 [11]: 0.4 µM (active) | GI50 [12]: 1.21 µM (inactive) | GI50 [13]: 4.38 µM (inactive) | GI50 [14]: 2.82 µM (inactive) | GI50 [15]: 2.24 µM (inactive) | GI50 [16]: 7.26 µM (inactive) | GI50 [17]: 1.35 µM (inactive) | GI50 [18]: 1.13 µM (inactive) | GI50 [19]: 2.17 µM (inactive) | GI50 [20]: 3.12 µM (inactive)

[N-]=[N+]=Nc1ccc(CNc2cc(=O)[nH]c(=O)[nH]2)cc1
GI50 [1]: > 100 µM (inactive) | GI50 [2]: > 100 µM (inactive) | GI50 [3]: > 100 µM (inactive) | GI50 [4]: > 100 µM | GI50 [5]: > 100 µM (inactive) | GI50 [6]: > 100 µM (inactive) | GI50 [7]: > 95.7 µM (inactive) | GI50 [8]: > 100 µM (inactive) | GI50 [9]: > 100 µM (inactive) | GI50 [10]: > 100 µM (inactive) | GI50 [11]: > 100 µM (inactive) | GI50 [12]: > 100 µM (inactive) | GI50 [13]: > 100 µM (inactive) | GI50 [14]: > 100 µM (inactive) | GI50 [15]: > 100 µM (inactive) | GI50 [16]: > 100 µM (inactive) | GI50 [17]: > 100 µM (inactive) | GI50 [18]: > 100 µM (inactive) | GI50 [19]: > 64.1 µM (inactive) | GI50 [20]: > 100 µM (inactive)

O=C(O)CCCc1ccc2c(c1)C(C(=O)O)CC2 (stereo not given)
GI50 [1]: 76 µM (inactive) | GI50 [2]: > 100 µM (inactive) | GI50 [3]: > 100 µM (inactive) | GI50 [4]: > 100 µM | GI50 [5]: > 100 µM (inactive) | GI50 [6]: > 100 µM (inactive) | GI50 [7]: > 100 µM (inactive) | GI50 [8]: > 100 µM (inactive) | GI50 [9]: > 100 µM (inactive) | GI50 [10]: > 100 µM (inactive) | GI50 [11]: > 100 µM (inactive) | GI50 [12]: > 100 µM (inactive) | GI50 [13]: > 100 µM (inactive) | GI50 [14]: > 100 µM (inactive) | GI50 [15]: > 100 µM (inactive) | GI50 [16]: > 100 µM (inactive) | GI50 [17]: > 100 µM (inactive) | GI50 [18]: > 100 µM (inactive) | GI50 [19]: > 100 µM (inactive) | GI50 [20]: > 100 µM (inactive)

O=C(CSc1nc(O)nc2[nH]cnc12)Nc1ccccc1
GI50 [1]: 46.9 µM (inactive) | GI50 [2]: > 100 µM (inactive) | GI50 [3]: 91.2 µM (inactive) | GI50 [4]: 61.9 µM | GI50 [5]: > 100 µM (inactive) | GI50 [6]: 75 µM (inactive) | GI50 [7]: > 100 µM (inactive) | GI50 [8]: 85.3 µM (inactive) | GI50 [9]: 54.5 µM (inactive) | GI50 [10]: > 100 µM (inactive) | GI50 [11]: 57.5 µM (inactive) | GI50 [12]: > 100 µM (inactive) | GI50 [13]: > 100 µM (inactive) | GI50 [14]: > 100 µM (inactive) | GI50 [15]: > 100 µM (inactive) | GI50 [16]: > 100 µM (inactive) | GI50 [17]: 48.5 µM (inactive) | GI50 [18]: > 100 µM (inactive) | GI50 [19]: 66.4 µM (inactive) | GI50 [20]: > 100 µM (inactive)

O=C(Nc1ccccc1)c1cc(S(=O)(=O)Nc2nc3cccnc3[nH]2)c(SSc2cc(Cl)c(C(=O)Nc3ccccc3)cc2S(=O)(=O)Nc2nc3cccnc3[nH]2)cc1Cl
GI50 [1]: > 100 µM (inactive) | GI50 [2]: > 100 µM (inactive) | GI50 [3]: > 100 µM (inactive) | GI50 [4]: > 100 µM | GI50 [5]: > 100 µM (inactive) | GI50 [6]: > 100 µM (inactive) | GI50 [7]: > 100 µM (inactive) | GI50 [8]: > 100 µM (inactive) | GI50 [9]: > 100 µM (inactive) | GI50 [10]: > 100 µM (inactive) | GI50 [11]: > 100 µM (inactive) | GI50 [12]: > 100 µM (inactive) | GI50 [13]: > 100 µM (inactive) | GI50 [14]: > 100 µM (inactive) | GI50 [15]: > 100 µM (inactive) | GI50 [16]: > 100 µM (inactive) | GI50 [17]: > 100 µM (inactive) | GI50 [18]: > 100 µM (inactive) | GI50 [19]: > 100 µM (inactive) | GI50 [20]: > 100 µM (inactive)

CN(C)CCN(c1ccccn1)c1ccccn1
GI50 [1]: > 100 µM (inactive) | GI50 [2]: > 100 µM (inactive) | GI50 [3]: > 100 µM (inactive) | GI50 [4]: > 100 µM | GI50 [5]: > 100 µM (inactive) | GI50 [6]: > 100 µM (inactive) | GI50 [7]: > 100 µM (inactive) | GI50 [8]: > 100 µM (inactive) | GI50 [9]: > 100 µM (inactive) | GI50 [10]: > 100 µM (inactive) | GI50 [11]: > 100 µM (inactive) | GI50 [12]: > 100 µM (inactive) | GI50 [13]: > 100 µM (inactive) | GI50 [14]: > 100 µM (inactive) | GI50 [15]: > 100 µM (inactive) | GI50 [16]: > 100 µM (inactive) | GI50 [17]: > 100 µM (inactive) | GI50 [18]: > 100 µM (inactive) | GI50 [19]: > 100 µM (inactive) | GI50 [20]: > 100 µM (inactive)

Cc1[nH]n(-c2ncc(C(=O)O)c(=O)[nH]2)c(=O)c1CCO
GI50 [1]: > 100 µM (inactive) | GI50 [2]: > 88.9 µM (inactive) | GI50 [3]: > 100 µM (inactive) | GI50 [4]: > 100 µM | GI50 [5]: > 100 µM (inactive) | GI50 [6]: > 100 µM (inactive) | GI50 [7]: > 100 µM (inactive) | GI50 [8]: > 100 µM (inactive) | GI50 [9]: > 100 µM (inactive) | GI50 [10]: > 100 µM (inactive) | GI50 [11]: > 100 µM (inactive) | GI50 [12]: > 100 µM (inactive) | GI50 [13]: > 100 µM (inactive) | GI50 [14]: > 100 µM (inactive) | GI50 [15]: > 100 µM (inactive) | GI50 [16]: > 100 µM (inactive) | GI50 [17]: > 100 µM (inactive) | GI50 [18]: > 88.5 µM (inactive) | GI50 [19]: > 100 µM (inactive) | GI50 [20]: > 100 µM (inactive)

NP(=O)(OCC1=CC(=O)c2ccccc2C1=O)N(CCBr)CCBr (stereo not given)
GI50 [1]: 2.09 µM (inactive) | GI50 [2]: 2.2 µM (inactive) | GI50 [3]: 9.55 µM (inactive) | GI50 [4]: 5.13 µM | GI50 [5]: 0.863 µM (active) | GI50 [6]: 31.5 µM (inactive) | GI50 [7]: 12.6 µM (inactive) | GI50 [8]: 3.05 µM (inactive) | GI50 [9]: 3.96 µM (inactive) | GI50 [10]: 11.4 µM (inactive) | GI50 [11]: 1.65 µM (inactive) | GI50 [12]: 0.979 µM (active) | GI50 [13]: 12.1 µM (inactive) | GI50 [14]: 11.6 µM (inactive) | GI50 [15]: 7.4 µM (inactive) | GI50 [16]: 14.3 µM (inactive) | GI50 [17]: 10.6 µM (inactive) | GI50 [18]: 7.26 µM (inactive) | GI50 [19]: 2.32 µM (inactive) | GI50 [20]: 11.2 µM (inactive)

CC1(c2ccc(Cl)s2)CC(c2ccc(Cl)s2)=C(C#N)C(=C(C#N)C#N)N1 (stereo not given)
GI50 [1]: 20.9 µM (inactive) | GI50 [2]: 19.9 µM (inactive) | GI50 [3]: 17.3 µM (inactive) | GI50 [4]: 17.4 µM | GI50 [5]: 16.7 µM (inactive) | GI50 [6]: 29.5 µM (inactive) | GI50 [7]: 19.9 µM (inactive) | GI50 [8]: 29.6 µM (inactive) | GI50 [9]: 22.3 µM (inactive) | GI50 [10]: 23.2 µM (inactive) | GI50 [11]: 22.4 µM (inactive) | GI50 [12]: 22.8 µM (inactive) | GI50 [13]: 20.8 µM (inactive) | GI50 [14]: 32 µM (inactive) | GI50 [15]: 16.9 µM (inactive) | GI50 [16]: 16.9 µM (inactive) | GI50 [17]: 21 µM (inactive) | GI50 [18]: 22.2 µM (inactive) | GI50 [19]: 13.9 µM (inactive) | GI50 [20]: 18.7 µM (inactive)

CC(=O)N1C(Nc2ccccn2)CCN1c1ccccc1 (stereo not given)
GI50 [1]: > 10 µM (inactive) | GI50 [2]: > 10 µM (inactive) | GI50 [3]: > 10 µM (inactive) | GI50 [4]: > 10 µM | GI50 [5]: > 10 µM (inactive) | GI50 [6]: > 10 µM (inactive) | GI50 [7]: > 10 µM (inactive) | GI50 [8]: > 10 µM (inactive) | GI50 [9]: > 10 µM (inactive) | GI50 [10]: > 10 µM (inactive) | GI50 [11]: > 10 µM (inactive) | GI50 [12]: > 10 µM (inactive) | GI50 [13]: > 10 µM (inactive) | GI50 [14]: > 10 µM (inactive) | GI50 [15]: > 10 µM (inactive) | GI50 [16]: > 10 µM (inactive) | GI50 [17]: > 10 µM (inactive) | GI50 [18]: > 10 µM (inactive) | GI50 [19]: > 10 µM (inactive) | GI50 [20]: > 10 µM (inactive)
